Test results taken from patent publication US11413278B2, “Compounds and methods for promoting stress resistance” (priority 2015, dated 2022).
Where two headings read alike, the source gives them in different places.

Key:
NRF2 = assay: in vitro; format: cell-based, human; settings: for NRF2-dependency for H2O2-resistance, at 10 uM - with H2O2, 2nd experiment: experiment 2 (2nd); for NRF2-dependency for H2O2-resistance, 2nd experiment / NRF2-dependency for H2O2-resistance, 1st experiment: with H2O2, NRF2 knockdown in WI-38 cells; for NRF2-dependency for H2O2-resistance, at 10 uM - with H2O2, 1st experiment: experiment 1 (1st)
LC3A/B puncta = assay: Autophagy induction analysis (LC3A/B puncta immuno-staining); format: cell-based, human; settings: for Exp. 2, normalized change of nuclei numbers (Less cells): 20X objective, lysosomal LAMP co-staining
Method: Immuno-staining of LC3A/B was performed, following a standard protocol. Briefly, WI-38 cells were treated with small molecules for 24 hrs, and then processed and incubated with primary antibody (Cell Signaling, rabbit anti-LC3A/B, 1:100) overnight at 4° C. Next day, samples were processed and incubated with fluorophore-conjugated secondary antibody and further incubated with DAPI dye. Images were collected on the INCell Analyzer 2000 (Experiment 1: 10× objective; Experiment 2: 20× objective) and analyzed with the Developer Toolbox. For Experiment 2, lysosomal-associated membrane protein 2 (LAMP2) was also counter-stained to identify the LC3A/B puncta that colocalize with lysosome and the data were analyzed by the MetaXpress software (Molecular Devices, version 5.1). The intensity of total (Exp. 1) or LAMP2-colocalized LC3A/B puncta (Exp. 2) was normalized the total numbers nuclei in the fields.
These assays were performed, following the same procedures to analyze DNA-damage markers. WI-38 cells were incubated with small molecules for 24 hrs, and then processed and incubated with primary antibody (rabbit anti-LC3A/B, 1:100) overnight at 4 C. The next day, samples were processed and incubated with fluorophore-conjugated secondary antibody and further incubated with DAPI dye. Images were collected on an INCell Analyzer 2000 and analyzed with the Developer software. Total LC3A/B puncta intensity was normalized the total numbers of DAPI-positive nuclei.

C. elegans = format: in vivo, Caenorhabditis elegans
Method: The worms were treated with the small molecules in liquid, with H2O2 (500 μM final concentration) added on day 4 of adulthood, and scored for viability everyday
FUdR was used to block progeny production. The molecules were analyzed in 96-well plates, with 4 wells for each small molecule. Multiple control wells with DMSO (0.2% final concentration) were included. […] Day 1 adults were transferred onto mini-plates, seeded with OP50 bacteria (UV-irradiated, kanamycin-treated) and supplemented with small molecules (˜60 μM final concentration, 0.2% DMSO). Worms were scored every other day. Cumulative survival was analyzed using the STATA software (log-rank test). […] The worms were treated with the small molecules in liquid, with H2O2 (500 μM final concentration) added on day 4 of adulthood, and scored for viability every day.

[1] = 10 uM, YES = resistance reduced by at least 50%, partial = 25% to 50%
[2] = Exp. 1, 10 μM, 10X objective, WI-38 cells

## N=C1S/C(=C\c2cn(-c3ccccc3)nc2-c2cccs2)C(=O)N1c1nccs1 [Gr-6C]
NRF2; 10 uM
  NRF2-dependency for H2O2-resistance, at 10 uM - with H2O2, 2nd experiment: 2nd, partial.
NRF2; [1]
  NRF2-dependency for H2O2-resistance, 2nd experiment: partial.
NRF2; score
  J = NRF2-dependency for H2O2-resistance: 0
NRF2; summary score
  J = NRF2-dependency for H2O2-resistance: 0
LC3A/B puncta; score
  H = Potential Autophagy Induction: 0
LC3A/B puncta; summary score
  H = Potential Autophagy Induction: 0
C. elegans; in vivo
  L = H2O2-resistance in worms: 0
  N = H2O2-resistance in woms: 0

## O=C(Nc1ccc(Cl)c(Cl)c1)c1ccc([N+](=O)[O-])o1 [Gr-1G]
NRF2; 10 uM
  NRF2-dependency for H2O2-resistance, at 10 uM - with H2O2, 1st experiment: 1st, YES;
NRF2; [1]
  NRF2-dependency for H2O2-resistance, 1st experiment: YES;
NRF2; score
  J = NRF2-dependency for H2O2-resistance: 0
NRF2; summary score
  J = NRF2-dependency for H2O2-resistance: 0
LC3A/B puncta; 10 uM & 20 uM, YES/NO
  Assay 15: Potential autophagy induction by LC3A/B puncta assays: YES
LC3A/B puncta; [2]
  Exp. 1, induction of LC3A/B puncta (Up), total intensity normalized by total number of nuclei in the fields: p < 0.001; Up, 2006%,
  Exp. 1, normalized change of nuclei numbers (Less cells): Less cells, 41%,
LC3A/B puncta; Exp. 2, 10 μM, WI-38 cells
  Exp. 2, normalized change of nuclei numbers (Less cells): Less cells, 47%,
LC3A/B puncta; Exp. 2, 20 μM, WI-38 cells
  Exp. 2, normalized change of nuclei numbers (Less cells): Less cells, 67%,
LC3A/B puncta; score
  H = Potential Autophagy Induction: 1
LC3A/B puncta; summary score
  H = Potential Autophagy Induction: 1
C. elegans; in vivo
  L = H2O2-resistance in worms: 0
  N = H2O2-resistance in woms: 0

## COc1ccc(C(=O)/C=C/c2ccccc2Br)c(OC)c1 [Gr-4B]
NRF2; score
  J = NRF2-dependency for H2O2-resistance: 0
NRF2; summary score
  J = NRF2-dependency for H2O2-resistance: 0
LC3A/B puncta; score
  H = Potential Autophagy Induction: 0
LC3A/B puncta; summary score
  H = Potential Autophagy Induction: 0
C. elegans; score
  N = H2O2-resistance in woms: 0
C. elegans; summary score
  L = H2O2-resistance in worms: 0

## O=C(Nc1nc(C23CC4CC(CC(C4)C2)C3)cs1)C(c1ccccc1)c1ccccc1 [O10]
NRF2; score
  J = NRF2-dependency for H2O2-resistance: 0
NRF2; summary score
  J = NRF2-dependency for H2O2-resistance: 0
LC3A/B puncta; score
  H = Potential Autophagy Induction: 0
LC3A/B puncta; summary score
  H = Potential Autophagy Induction: 0
C. elegans; in vivo
  L = H2O2-resistance in worms: 0
  N = H2O2-resistance in woms: 0

## COc1ccc(C(=O)/C=C/c2ccc(F)cc2)c(OC)c1 [Gr-4A]
NRF2; score
  J = NRF2-dependency for H2O2-resistance: 0
NRF2; summary score
  J = NRF2-dependency for H2O2-resistance: 0
LC3A/B puncta; score
  H = Potential Autophagy Induction: 0
LC3A/B puncta; summary score
  H = Potential Autophagy Induction: 0
C. elegans; score
  N = H2O2-resistance in woms: 0
C. elegans; summary score
  L = H2O2-resistance in worms: 0

## COC(=O)CCc1sc2c(c1[N+](=O)[O-])NC(=O)CCC2 [O20]
NRF2; 10 uM
  NRF2-dependency for H2O2-resistance, at 10 uM - with H2O2, 1st experiment: 1st, YES;
  NRF2-dependency for H2O2-resistance, at 10 uM - with H2O2, 2nd experiment: 2nd, YES.
NRF2; 10 uM, experiment 3, with & without H2O2
  NRF2-dependency for H2O2-resistance, at 10 uM (experiment 3) - with & without H2O2: YES
NRF2; 10 uM, with & without H2O2, NRF2 knockdown in WI-38 cells, YES = resistance reduced by at least 50%, partial = 25% to 50%
  NRF2-dependency for H2O2-resistance (experiment 3): YES
NRF2; [1]
  NRF2-dependency for H2O2-resistance, 1st experiment: YES;
  NRF2-dependency for H2O2-resistance, 2nd experiment: YES.
NRF2; 10 uM, YES/NO
  Assay 17: NRF2-dependency for H2O2-resistance: YES
NRF2; 3 of 3 experiments
  Reduction of H2O2-resistance capacity upon NRF2 knockdown, on average: ~90%
NRF2; at least 2 of 3 independent experiments
  NRF2-dependency of H2O2-resistance (NRF2 siRNA knockdown): significantly attenuate
NRF2; score
  J = NRF2-dependency for H2O2-resistance: 1
NRF2; summary score
  J = NRF2-dependency for H2O2-resistance: 1
LC3A/B puncta; score
  H = Potential Autophagy Induction: 0
LC3A/B puncta; summary score
  H = Potential Autophagy Induction: 0
C. elegans; in vivo
  L = H2O2-resistance in worms: 0
  N = H2O2-resistance in woms: 0
